Values of other authors, collected in patent US20020146463A1, “Health promoting compositions” (priority 2000, published 2002).

What was measured:
[1] = 500 patients with skin conditions, 180-300 mg beta carotene/day for 10 years
[2] = three recent trials
[3] = high versus low levels of folic acid in diet

CC1=C(/C=C/C(C)=C/C=C/C(C)=C/C=C/C=C(C)/C=C/C=C(C)/C=C/C2=C(C)CCCC2(C)C)C(C)(C)CCC1 [beta carotene]
adverse effects [1]: without report of adverse effects

vitamin E
reduction of the risk of heart attacks [2]: more than half

Nc1nc2ncc(CNc3ccc(C(=O)N[C@@H](CCC(=O)O)C(=O)O)cc3)nc2c(=O)[nH]1 [folic acid]
less likely to suffer a fatal heart attack [3]: 69%
